Source: patent US20080113918A1, “AGONIST POLYPEPTIDE OF RECEPTOR FOR ZOT AND ZONULIN” (University of Maryland - Baltimore, priority 2003, published 2008)
No end group written: not given here.

Experiments:
PAR-2 = experiment: FZI/0-PAR-2 AP competitive binding in Caco2 cells; design: species or system human
Description: FIGS. 4A-4D. FZI/0-PAR-2 AP competitive binding experiments.
FZI/0-PAR-2 AP competitive binding experiments. The activation of PAR-2 requires binding of either its tryptase-generated, cleaved N-terminal portion or the synthetic peptide equivalent, PAR-2 AP, to the receptor's extracellular loop 2 (ECL2) (47). To establish whether FZI/0 binds to the same receptor domain, competitive binding experiments were conducted in Caco2 cells. Cell monolayers were incubated with FITC-FZI/0 (2×10^−8M)) either in the presence of an excess of PAR-2 AP (10^−6M) or a scrambled peptide and then analyzed by fluorescence microscopy.

Caco2 cell monolayers = experiment: PAR-2 AP-induced actin rearrangement in Caco2 cell monolayers; format: cell-based, human; conditions: 10^−6M PAR-2 AP, Caco2, vs BSA
From the text: FIGS. 5A to 5D. Actin cytoskeleton arrangement in Caco2 cells exposed to PAR2-AP (FIG. 5A), BSA (FIG. 5B), PAR2-AP+FZI/0 (FIG. 5C), or PAR-2 AP+FZI/1 (FIG. 5D).
Effect of the Zot/zonulin inhibitor FZI/0 on PAR-2 AP-induced actin rearrangement. It has been recently reported that activation of PAR-2 receptor by PAR-2 AP promotes cytoskeletal reorganization (53). To establish whether this effect can be prevented by the synthetic Zot/zonulin peptide inhibitor, FZI/0, immunofluorescence studies were conducted in Caco2 cell monolayers. […] These cytoskeletal changes were blocked by the pre-incubation with 2×10^−6M FZI/0 (FIG. 5C), but not by the scrambled peptide FZI/1 (FIG. 5D). Therefore, PAR-2 AP and FZI/0 appear to bind to the identical structure on enterocytes.

[1] = test system: wild-type mouse intestinal tissues; experiment: Intestinal TEER in wild-type mice tissues

SLIGRL [PAR-2 AP]
displacement of FITC-FZI/0 binding (PAR-2; FITC-FZI/0 2×10^−8M, excess of competitor (PAR-2 AP 10^−6M; 100×)): significant reduction of FZI/0 immunofluorescent staining particles | actin cytoskeleton arrangement (Caco2 cell monolayers): dissolution of stress fibers | intestinal resistance (TEER) over time [1]: comparable drop in intestinal resistance

GGVLVQPG [FZI/0]
binding to Caco2 cells (fluorescent particles) (PAR-2; FITC-labelled FZI/0 vs media control): significant number of fluorescent particles
